Assays:
[1] = tested on: statin-intolerant patients with or at high risk of CVD; test: CLEAR OUTCOMES trial (Example 1): effect on LDL-cholesterol, hsCRP, other lipids and glycaemic biomarkers; type: in vivo, human
Text: The CLEAR OUTCOMES trial was a randomized, placebo-controlled, double-blind trial that enrolled patients at 1250 sites in 32 countries. An independent Data Monitoring Committee reviewed safety and efficacy data during the trial.
Patients 18 to 85 years of age were eligible for enrollment if they met either of two criteria for increased cardiovascular risk, a prior cardiovascular event (secondary prevention) or clinical features that placed them at high risk for a cardiovascular event (primary prevention). (Nicholls S. Lincoff A M, Bays H E, et al. Rationale and design of the CLEAR-outcomes trial: Evaluating the effect of bempedoic acid on cardiovascular events in patients with statin intolerance. Am Heart J. 2021 May; 235:104-112) All patients provided written informed consent. Patients had to report statin intolerance due to an adverse effect that started or increased during statin therapy and resolved or improved after statin therapy was discontinued. Patients could be enrolled if they tolerated a very low average daily statin dose (e.g., an average daily dose of rosuvastatin <5 mg, atorvastatin <10 mg, simvastatin <10 mg, lovastatin <20 mg, pravastatin <40 mg, fluvastatin <40 mg, or pitavastatin <2 mg). Other lipid-lowering therapies were permitted, including ezetimibe, niacin, bile acid resins, fibrates, and/or proprotein convertase subtilisin kexin type 9 (PCSK9) inhibitors. Full inclusion and exclusion criteria are provided in Nicholls et al. (Am Heart J. 2021).
Eligible patients entered a 4-week run-in period during which patients were treated with single-blind placebo. If patients were intolerant to placebo treatment or if adherence was <80% by tablet count, they were not eligible for randomization. Patients who successfully completed the run-in period were randomly assigned in a 1:1 ratio to receive bempedoic acid at an oral dose of 180 mg or matching placebo, administered daily. Beginning 6 months after enrollment, the central laboratory notified the investigator if the patient's LDL-cholesterol level was ≥25% higher than baseline. These patients were counseled on healthy dietary guidelines and reminded to take all lipid-regulating medications. If repeat testing confirmed that LDL-cholesterol value met the threshold criteria, the provider could adjust the lipid-lowering treatment regimen per standard of care and local guidelines.
This was an event-driven trial designed to provide at least 90% power to detect a 15% relative risk reduction for the primary composite end point at an overall two-sided significance level of 0.05. The trial required a minimum of 1620 primary composite events with ≥24 months of follow-up for all patients and at least 810 first key secondary end points. The average treatment duration was estimated to be 42 months and a lost-to-follow-up rate of 1% per year. Assuming a 3.59% annual event rate in the placebo group, enrollment of 12,600 patients was required, subsequently amended to 14,000. There were no interim efficacy analyses. A hierarchical approach was prespecified to evaluate sequentially each of the six key secondary efficacy end points with statistical significance at each step required to test the next hypothesis, thereby preserving the study-wise Type I error rate at 5%. All analyses were based on the intent-to-treat principle. The primary efficacy end point was analyzed using Cox proportional hazards model with treatment as a factor to generate the hazard ratio (HR) and 95% confidence interval (CI). The p-value was obtained from a log-rank test.

[2] = tested on: statin-intolerant patients with or at high risk of CVD; type: in vivo
Procedure: CLEAR OUTCOMES (described in Example 1) was a randomized double-blind trial comparing orally administered bempedoic acid 180 mg once daily to placebo in statin-intolerant patients with or at high risk of CVD and an LDL-C ≥2.59 mmol/L. This prespecified analysis reports the time to event analysis of bempedoic acid versus placebo on the primary endpoint (MACE-4; composite of CV death, nonfatal MI, nonfatal stroke, or coronary revascularization) and key secondary end-point (MACE-3; death from cardiovascular causes, nonfatal myocardial infarction, nonfatal stroke) by baseline glycaemia status (diabetes, prediabetes, and normoglycaemia), and impact on HbA1c at 1 and 3 years and on NOD for subjects without diabetes at baseline.

[3] = baseline mean 139.0 mg/dL, full population
[4] = baseline diabetes, median 3.4 year follow up
[5] = baseline normoglycaemia, p<0.0001
[6] = baseline normoglycemia, median 3.4 year follow up
[7] = baseline pre-diabetes, median 3.4 year follow up
[8] = baseline pre-diabetes, p<0.0001
[9] = diabetes, primary prevention CVD risk group
[10] = diabetes, secondary prevention CVD risk group
[11] = vs placebo, baseline normoglycemia
[12] = vs placebo, baseline pre-diabetes
[13] = vs placebo, diabetes, primary prevention
[14] = vs placebo, diabetes, secondary prevention
[15] = vs placebo, history of one or more cardiovascular events
[16] = vs placebo, no prior history of cardiovascular events

## CC(C)(CCCCCC(O)CCCCCC(C)(C)C(=O)O)C(=O)O [Bempedoic Acid, Bempedoic acid]
[1]; [3]
  placebo-subtracted reduction in LDL-cholesterol after 6 months of treatment: 29.2 mg/dL
  placebo-subtracted reduction in LDL-cholesterol after 6 months of treatment, percent: 21.1%
[1]; bempedoic acid vs placebo
  Change from baseline to month 12 in HbA1C in patients with inadequately controlled type 2 diabetes mellitus, Difference: −0.03%
[1]; observed mean ± SD
  Change from baseline to Month 6 in HbA1c (%), All patients: −0.003 ± 0.6^ %
  Change from baseline to Month 6 in HbA1c (%), Inadequately Controlled Diabetes at Baseline: −0.20 ± 1.0%
  Change from baseline to Month 12 in HbA1c (%), All patients: 0.04 ± 0.74%
  Change from baseline to Month 12 in HbA1c (%), Inadequately Controlled Diabetes at Baseline: −0.06 ± 1.3%
[1]; prior to initial administration as baseline
  decrease in LDL-C as compared to baseline: about 21%
[1]; vs placebo, over the trial, full population
  time-averaged reduction in LDL-cholesterol, percent: 15.9%
[2]; [4]
  Time to First Adjudicated MACE-3, Diabetes, % of patients: 8.9%
  Time to First Adjudicated MACE-3, Diabetes, patients with event/patients: 279/3144
  Time to First Adjudicated MACE-4, Diabetes, % of patients: 11.9%
  Time to First Adjudicated MACE-4, Diabetes, patients with event/patients: 374/3144
[2]; baseline diabetes, p<0.0001
  LDL-C reduction compared to placebo at month 6, patients with diabetes: 21.2%
  LDL-C reduction compared to placebo at month 6 in absolute terms, patients with diabetes: 0.73 mmol/L
[2]; [5]
  LDL-C reduction compared to placebo at month 6, patients with normoglycaemia: 22.0%
  LDL-C reduction compared to placebo at month 6 in absolute terms, patients with normoglycaemia: 0.81 mmol/L
[2]; [6]
  Time to First Adjudicated MACE-3, Normoglycemia, % of patients: 7.2%
  Time to First Adjudicated MACE-3, Normoglycemia, patients with event/patients: 67/937
  Time to First Adjudicated MACE-4, Normoglycemia, % of patients: 10.1%
  Time to First Adjudicated MACE-4, Normoglycemia, patients with event/patients: 95/937
[2]; [7]
  Time to First Adjudicated MACE-3, Pre-Diabetes, % of patients: 7.9%
  Time to First Adjudicated MACE-3, Pre-Diabetes, patients with event/patients: 229/2911
  Time to First Adjudicated MACE-4, Pre-Diabetes, % of patients: 12.0%
  Time to First Adjudicated MACE-4, Pre-Diabetes, patients with event/patients: 350/2911
[2]; [8]
  LDL-C reduction compared to placebo at month 6, patients with pre-diabetes: 20.7%
  LDL-C reduction compared to placebo at month 6 in absolute terms, patients with pre-diabetes: 0.76 mmol/L
[2]; [9]
  Time to First Adjudicated MACE-3, Diabetes, Primary Prevention, % of patients: 4.9%
  Time to First Adjudicated MACE-3, Diabetes, Primary Prevention, patients with event/patients: 67/1369
  Time to First Adjudicated MACE-4, Diabetes, Primary Prevention, % of patients: 6.4%
  Time to First Adjudicated MACE-4, Diabetes, Primary Prevention, patients with event/patients: 87/1369
[2]; [10]
  Time to First Adjudicated MACE-3, Diabetes, Secondary Prevention, % of patients: 11.9%
  Time to First Adjudicated MACE-3, Diabetes, Secondary Prevention, patients with event/patients: 212/1775
  Time to First Adjudicated MACE-4, Diabetes, Secondary Prevention, % of patients: 16.2%
  Time to First Adjudicated MACE-4, Diabetes, Secondary Prevention, patients with event/patients: 287/1775
[2]; vs placebo, 180 mg oral daily
  reduction in risk of MACE (CV death, non-fatal MI or non-fatal stroke), adult with diabetes: about 20%
  reduction in risk of MACE (CV death, non-fatal MI, non-fatal stroke or coronary revascularization), adult with diabetes: about 17%
[2]; vs placebo, baseline diabetes
  Time to First Adjudicated MACE-3, Diabetes, HR: 0.80
  Time to First Adjudicated MACE-4, Diabetes, HR: 0.83
[2]; [11]
  Time to First Adjudicated MACE-3, Normoglycemia, HR: 0.96
  Time to First Adjudicated MACE-4, Normoglycemia, HR: 0.84
[2]; [12]
  Time to First Adjudicated MACE-3, Pre-Diabetes, HR: 0.92
  Time to First Adjudicated MACE-4, Pre-Diabetes, HR: 0.94
[2]; [13]
  Time to First Adjudicated MACE-3, Diabetes, Primary Prevention, HR: 0.65
  Time to First Adjudicated MACE-4, Diabetes, Primary Prevention, HR: 0.70
[2]; [14]
  Time to First Adjudicated MACE-3, Diabetes, Secondary Prevention, HR: 0.86
  Time to First Adjudicated MACE-4, Diabetes, Secondary Prevention, HR: 0.87
[2]; [15]
  reduction in risk of MACE (CV death, non-fatal MI or non-fatal stroke), adult with diabetes at risk for a secondary MACE: at least 14%
  reduction in risk of MACE (CV death, non-fatal MI, non-fatal stroke or coronary revascularization), adult with diabetes at risk for a secondary MACE: about 13%
[2]; [16]
  reduction in risk of MACE (CV death, non-fatal MI or non-fatal stroke), adult with diabetes at risk for a primary MACE: about 35%
  reduction in risk of MACE (CV death, non-fatal MI, non-fatal stroke or coronary revascularization), adult with diabetes at risk for a primary MACE: about 30%
